Earlier results as cited in patent US20060079683A1, “Arylthiobenzylpiperidine derivatives” (priority 2004, published 2006).

What was measured:
Conditions in all cases: B. Borowsky, et al., Nature Medicine, 2002
MCH1 receptor [1] = biological target: T1, MCH1 receptor (Rattus norvegicus, UniProt P97639)
T1 construct: host or cells: living rat, endogenous receptor

MCH1 receptor [2] = biological target: T1, MCH1 receptor; remark: listed apart in the source
MCH1 receptor [3] = biological target: T2, MCH1 receptor (Cavia porcellus, UniProt H0VKT7)
T2 construct: host or cells: living guinea pig, endogenous receptor
T2 sequence (H0VKT7 1-355): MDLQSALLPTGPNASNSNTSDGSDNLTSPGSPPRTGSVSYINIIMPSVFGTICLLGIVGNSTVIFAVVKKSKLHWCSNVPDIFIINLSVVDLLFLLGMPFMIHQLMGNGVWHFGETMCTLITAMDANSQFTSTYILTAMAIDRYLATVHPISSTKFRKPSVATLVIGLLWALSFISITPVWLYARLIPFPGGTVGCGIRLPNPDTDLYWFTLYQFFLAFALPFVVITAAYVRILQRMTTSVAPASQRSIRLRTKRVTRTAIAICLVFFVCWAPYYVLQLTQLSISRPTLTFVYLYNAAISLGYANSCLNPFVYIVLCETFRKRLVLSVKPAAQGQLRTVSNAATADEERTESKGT

T1 sequence (P97639 whole entry): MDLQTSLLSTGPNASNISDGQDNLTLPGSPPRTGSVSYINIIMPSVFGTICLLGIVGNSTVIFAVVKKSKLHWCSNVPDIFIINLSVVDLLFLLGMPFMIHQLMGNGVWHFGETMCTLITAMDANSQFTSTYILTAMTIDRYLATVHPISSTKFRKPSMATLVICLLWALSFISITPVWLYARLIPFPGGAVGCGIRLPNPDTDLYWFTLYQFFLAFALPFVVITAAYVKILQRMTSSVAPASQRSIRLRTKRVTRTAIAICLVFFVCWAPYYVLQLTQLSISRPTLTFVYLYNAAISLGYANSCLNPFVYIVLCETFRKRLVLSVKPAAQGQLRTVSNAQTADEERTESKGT

COCC1=C(C(=O)OC)[C@H](c2ccc(F)c(F)c2)N(C(=O)NCCCN2CCC(c3cccc(NC(C)=O)c3)CC2)C(=O)N1 [SNAP-7941]
profile in behavioral model of depression and/or anxiety: rat forced-swim (MCH1 receptor [1]): profile similar to clinically used anti-depressants and anxiolytics
profile in behavioral model of depression and/or anxiety: rat social interaction (MCH1 receptor [2]): profile similar to clinically used anti-depressants and anxiolytics
profile in behavioral model of depression and/or anxiety: guinea pig maternal-separation vocalization (MCH1 receptor [3]): profile similar to clinically used anti-depressants and anxiolytics
